The values that follow come from US5229265A, “Process for analyzing clastogenic agents” (Litron Laboratories, priority 1990, dated 1993).

Data set [1] concerns micronucleated cells in blood. Put plainly: Flow cytometric micronucleus assay, dual parameter data, cyclophosphamide, per 10^6 cells. The format is in vivo, mouse. To be noted: for Mns (T = 96 hr): Hoechst 33258; for Δ (T96 - T0): per mouse difference and mean of differences. The text has this:
The fixation procedure can affect the permeability of a cell, cell morphology and the amount of undesirable autofluorescence that is associated with a cell preparation. Fixing procedures can cause changes in cell structure (that are reflected in the light scatter patterns) as well as changes in the distribution of the dye molecules within the cells (resulting in altered fluorescence emission patterns). Practioners of the art are unaware that fixing the cells at ultralow temperatures circumvents these fixation problems and provides cells that are suitable for subsequent staining and FCM analysis. Initially, the cells are centrifuged in order to separate them from serum components which could aggregate when added to cold fixative. To fix cells, a fresh blood sample (25 μl) containing an anticogulant is suspended in a solution containing 1% BSA and 10% dimethylsulfoxide (DMSO) in PBS (2 ml). The cells are centrifuged at 500×g for five minutes at room temperature. The supernatant is discarded and the pellet is resuspended in the small amount of residual supernatant that remains. This cell suspension is cooled to 0° C., the cells are diluted further with cold (-70° C.) absolute methanol (2 ml) and it is incubated at -70° C. for five minutes. The cell suspension is then immediately diluted with 1% BSA in PBS (10 ml) and is centrifuged at 500×g for 5 minutes. The low temperature treatment yields fixed cells with good morphology as viewed with either inverted phase contrast microscopy or fluorescent microscopy. Autofluorescence of these cells is very low, in contrast to glutaraldehyde or paraformaldehyde fixation procedures that are widely used in the art. Other volumes of blood and/or BSA in PBS are also compatible with this cell fixing process. The volume of methanol should be in the range of 0.5 to 20 ml. The temperature of the methanol should be in the range -30° C. to -90° C., and the fixation time in the range of 1 minute to 60 minutes for good results. When cells are fixed in alcohol at higher temperatures (e.g. in the range of +37° C. to - 20° C.), they tend to aggregate and quickly settle to the bottom of the centrifuge tube. […] Other ultra cold solvents can be used in place of methanol, such as acetone, methanol/acetone solutions, etc.. Two fixed cell samples can be prepared for each mouse, an initial (time=0) sample and a final time=96 hr sample. Cells fixed in this way can be stored at 0° C. for weeks with no significant deterioration and are ready for staining and MN analysis.
It is known to practioners in the art that a variety of fluorescent dyes can be used to stain the DNA and RNA of cells. Even so, the specific stain, combinations or staining conditions that are optimum for the FCM based micronucleus assay are unresolved. […] These dye can be used individually or together to stain different cell populations. By choosing proper concentrations of these two dyes in conjunction with 363 nm excitation wavelength, it is possible to obtain a blue fluorescence signal from the Hoechst 33258 labeled micronucleii. A red fluorescence signal can be obtained from propidium iodide labeled PCEs. Whereas neither the dye combination, the dye concentration, the dye excitation wavelengths nor the appropriate buffer systems are known to practitioners in the art for an FCM based micronucleus assay, the following staining protocal is submitted as an embodiment of the present invention. A 10× stock solution of the dye should be prepared by dissolving 14.3 mg Hoechst 33258 in methanol (100 ml). A working solution is then prepared by adding 0.25 ml of the 10× stock solution to 9.75 ml of complete Sorensen's buffer. This working solution is then passed through an 0.2 micron acro-filter disk (Gelman Sciences) to remove any debris. The filtered working solution is further diluted by adding 25 μl to 967.5 μl of saline buffer (9 g NaCl and 0.445 g sodium bicarbonate per liter). […]
In general terms: A flow cytometer gives signals particle by particle.

Data set [2] has as its system micronucleated cells in blood. Particulars: literature statement; cited from earlier work.
Data set [3] concerns micronucleated cells in blood. Put plainly: Flow cytometric micronucleus assay, list mode data, blood of MMS treated mice, per 10,000 PCEs. The format is in vivo, mouse. From the text:
(§1) The fixation procedure can affect the permeability of a cell, cell morphology and the amount of undesirable autofluorescence that is associated with a cell preparation. Fixing procedures can cause changes in cell structure (that are reflected in the light scatter patterns) as well as changes in the distribution of the dye molecules within the cells (resulting in altered fluorescence emission patterns). Practioners of the art are unaware that fixing the cells at ultralow temperatures circumvents these fixation problems and provides cells that are suitable for subsequent staining and FCM analysis. Initially, the cells are centrifuged in order to separate them from serum components which could aggregate when added to cold fixative. To fix cells, a fresh blood sample (25 μl) containing an anticogulant is suspended in a solution containing 1% BSA and 10% dimethylsulfoxide (DMSO) in PBS (2 ml). The cells are centrifuged at 500×g for five minutes at room temperature. The supernatant is discarded and the pellet is resuspended in the small amount of residual supernatant that remains. This cell suspension is cooled to 0° C., the cells are diluted further with cold (-70° C.) absolute methanol (2 ml) and it is incubated at -70° C. for five minutes. The cell suspension is then immediately diluted with 1% BSA in PBS (10 ml) and is centrifuged at 500×g for 5 minutes. The low temperature treatment yields fixed cells with good morphology as viewed with either inverted phase contrast microscopy or fluorescent microscopy. […] Cells fixed in this way can be stored at 0° C. for weeks with no significant deterioration and are ready for staining and MN analysis.
(§2) It is known to practioners in the art that a variety of fluorescent dyes can be used to stain the DNA and RNA of cells. […] By choosing proper concentrations of these two dyes in conjunction with 363 nm excitation wavelength, it is possible to obtain a blue fluorescence signal from the Hoechst 33258 labeled micronucleii. A red fluorescence signal can be obtained from propidium iodide labeled PCEs. […]

Data set [4] relates to micronucleated cells in blood. Briefly: Flow cytometric micronucleus assay, dual parameter data, MMS, Hoechst 33258 stain, per 500,000 cells. The format is in vivo, mouse.
Text: as §1, §2

[5] abbreviates: CP 100 μg/g body wt IP at 0 and 48 hours.
Where [6] appears, read: CP 100 μg/g body wt IP at 0 and 48 hours, listed as CP.
Where [7] appears, read: MMS 100 μg/g body weight IP at 0 and 48 hours, Hoechst 33258.

Where “and” joins values, the source holds several entries; their conditions need not be identical. Equal values may be shown once. Entries after “also recorded” stand apart in the source; their conditions may differ.

Take `O=P1(N(CCCl)CCCl)NCCCO1` (stereo not shown) [cyclophosphamide]: the “Mns (T = 96 hr)” value in data set [1] (setting [5]) is 2954 MNs per 10^6 cells; in data set [1] (setting [6]), 2591 MNs per 10^6 cells and 2453 MNs per 10^6 cells and 2626 MNs per 10^6 cells and 2708 MNs per 10^6 cells and 2594 ± 106 MNs per 10^6 cells. Further, the “Δ (T96 - T0)” value in data set [1] (setting [5]) is 1124 MNs per 10^6 cells; in data set [1] (setting [6]) it was 1099 MNs per 10^6 cells and 1039 MNs per 10^6 cells and 1074 MNs per 10^6 cells and 1282 MNs per 10^6 cells and 1124 ± 108 MNs per 10^6 cells. Besides, in data set [1] (CP 100 μg/g body wt IP at 0 and 48 hours, t=96 hr mean minus t=0 mean), the “Difference Mn96 - Mn0 (difference of the means)” value is 1123 MNs per 10^6 cells. The “MN formation” value in data set [1] (CP 100 μg/g body wt at 0 and 48 hours) is on record as “large increase in MN formation”. Further, the “Increase in MNs (MeanCP - MeanSaline), from mean Δ (T96 - T0)” value in data set [1] (first method: difference of mean individual Δ values, CP minus saline) turned out to be 1047 MNs per 10^6 cells. Further, the “Increase in MNs (MeanCP - MeanSaline), from Mn96 - Mn0 of means” value in data set [1] (second method: difference of means, CP minus saline) amounted to 1047 MNs per 10^6 cells. The “Increase in MNs, means of the t=96 hr samples (dosed minus controls)” value in data set [1] (third method: t=0 values ignored, 1,000,000 cells) worked out at 992 MN-cells. Further, the “clastogenic activity (documented)” value in data set [2] is listed as “clastogenic activity of cyclophosphamide has been documented”.
In the case of `COS(C)(=O)=O` [MMS, methyl methanesulfonate], the “Experimental (A96) (MN96 hr)” value in data set [3] (MMS 100 μg/g body weight IP at 0 and 48 hours, 96 hr blood, list mode) is 432 MNs/10,000 PCEs and 546 MNs/10,000 PCEs and 470 MNs/10,000 PCEs and 523 MNs/10,000 PCEs and 580 MNs/10,000 PCEs. Also, the “Δ (A96 - T96), change in number of MNs” value in data set [3] (MMS 100 μg/g body weight IP at 0 and 48 hours, normalized with K, list mode) is 293 MNs/10,000 PCEs and 342 MNs/10,000 PCEs and 328 MNs/10,000 PCEs and 307 MNs/10,000 PCEs and 374 MNs/10,000 PCEs and 329 ± 32 MNs/10,000 PCEs and 329±28 MNs/10,000 PCEs. The clastogenic activity entry in data set [3] (MMS 100 μg/g body weight IP at t=0 and t=48 hours) is listed as “MMS exhibited clastogenic activity”. Also, in data set [4] (setting [7]), the “Mns (96 hr)” value is 1654 MNs per 500,000 cells and 1424 MNs per 500,000 cells and 1360 MNs per 500,000 cells and 1662 MNs per 500,000 cells; the “Δ (T96 - T0), change in MNs” value was 713 MNs per 500,000 cells and 620 MNs per 500,000 cells and 512 MNs per 500,000 cells and 540 MNs per 500,000 cells and 596 ± 90 MNs per 500,000 cells. Besides, the “change (Δ) in MNs versus control mice” value in data set [4] (MMS 100 μg/g body weight at 0 and 48 hours, 96 hr blood) was “significantly higher than the Δ values for the control mice; also recorded: increase in the number of MNs in the analysis area relative to the initial blood”.
